Data taken from the NIST ThermoML archive (doi:10.1021/je1005483).
Numbers after ± are expanded uncertainties.

Columns and labels:
[1] = xn = mol fraction of the nth substance listed; settings: 101.3 kPa, Liquid; for speed of sound: 298.15 K
[2] = molar heat capacity at constant pressure; xn = mol fraction of the nth substance listed; settings: 298.15 K, 101.3 kPa, Liquid, Flow calorimetry

CC1COC(=O)O1 (configuration not stated) [4-methyl-1,3-dioxolan-2-one] + CC#N
Settings	molar heat capacity at constant pressure, [2] [J/K/mol]	speed of sound, [1] [m/s]
x1 = 0.02042	93.86 ± 0.58	–
x1 = 0.04818	95.91 ± 0.59	–
x1 = 0.0502	–	1287.5 ± 2.7
x1 = 0.08041	98.29 ± 0.61	–
x1 = 0.09602	99.45 ± 0.61	–
x1 = 0.1021	99.9 ± 0.62	–
x1 = 0.1022	–	1296.4 ± 2.7
x1 = 0.1298	101.95 ± 0.63	–
x1 = 0.1438	103 ± 0.64	–
x1 = 0.1512	–	1305.1 ± 2.7
x1 = 0.1521	103.61 ± 0.64	–
x1 = 0.1801	105.69 ± 0.65	–
x1 = 0.193	106.65 ± 0.66	–
x1 = 0.1988	107.08 ± 0.66	–
x1 = 0.2006	–	1313.9 ± 2.7
x1 = 0.3006	114.62 ± 0.71	–
x1 = 0.3031	–	1331 ± 2.7
x1 = 0.3051	–	1331.6 ± 2.7
x1 = 0.3994	121.92 ± 0.75	–
x1 = 0.4046	–	1351.6 ± 2.8
x1 = 0.4507	125.72 ± 0.78	–
x1 = 0.4508	125.72 ± 0.78	–
x1 = 0.5067	–	1369 ± 2.8
x1 = 0.5997	136.77 ± 0.84	–
x1 = 0.5999	136.78 ± 0.84	–
x1 = 0.6088	–	1386.6 ± 2.8
x1 = 0.6973	144.05 ± 0.89	–
x1 = 0.7035	–	1399.3 ± 2.9
x1 = 0.7037	–	1399.4 ± 2.9
x1 = 0.7485	147.88 ± 0.91	–
x1 = 0.7494	147.94 ± 0.91	–
x1 = 0.7986	–	1415.1 ± 2.9
x1 = 0.856	–	1422.3 ± 2.9
x1 = 0.8995	159.26 ± 0.98	–
x1 = 0.9004	159.33 ± 0.98	–
x1 = 0.9052	–	1427.8 ± 2.9
x1 = 0.9518	–	1434.5 ± 2.9
x1 = 0.9766	–	1438 ± 2.9
x1 = 1	166.98 ± 1	1443 ± 2.9

mass density [kg/m3], [1]
Settings	308.15 K	318.15 K
x1 = 0.00899	772.153 ± 0.37	–
x1 = 0.00987	–	762.8 ± 0.38
x1 = 0.01974	779.714 ± 0.36	–
x1 = 0.02015	–	770.008 ± 0.37
x1 = 0.02827	785.631 ± 0.35	–
x1 = 0.03912	793.054 ± 0.34	–
x1 = 0.04049	–	783.973 ± 0.35
x1 = 0.04976	800.23 ± 0.34	–
x1 = 0.04999	–	790.403 ± 0.35
x1 = 0.05955	806.732 ± 0.33	–
x1 = 0.05968	–	796.854 ± 0.34
x1 = 0.06835	812.468 ± 0.33	–
x1 = 0.06983	–	803.478 ± 0.33
x1 = 0.07649	–	807.807 ± 0.33
x1 = 0.08237	821.557 ± 0.32	–
x1 = 0.09048	–	816.808 ± 0.32
x1 = 0.09065	826.854 ± 0.31	–
x1 = 0.09974	832.541 ± 0.31	–
x1 = 0.1015	–	823.802 ± 0.31
x1 = 0.1473	861.545 ± 0.28	–
x1 = 0.1527	–	855.059 ± 0.28
x1 = 0.2011	–	882.847 ± 0.27
x1 = 0.2018	892.585 ± 0.26	–
x1 = 0.2502	–	909.428 ± 0.25
x1 = 0.2509	919.09 ± 0.25	–
x1 = 0.2971	–	933.541 ± 0.26
x1 = 0.2983	943.362 ± 0.24	–
x1 = 0.4008	991.468 ± 0.25	–
x1 = 0.4037	–	983.751 ± 0.28
x1 = 0.4905	1029.07 ± 0.3	–
x1 = 0.5036	–	1025.46 ± 0.36
x1 = 0.5979	1069.65 ± 0.28	–
x1 = 0.6004	–	1061.56 ± 0.45
x1 = 0.6902	1101.28 ± 0.28	–
x1 = 0.7016	–	1095.76 ± 0.54
x1 = 0.7903	1132.31 ± 0.29	–
x1 = 0.7997	–	1125.73 ± 0.65
x1 = 0.9005	–	1153.94 ± 0.3
x1 = 0.901	1163.56 ± 0.31	–
x1 = 0.9113	–	1156.82 ± 0.77
x1 = 0.9121	1166.51 ± 0.32	–
x1 = 0.9218	1169.02 ± 0.32	–
x1 = 0.9302	1171.25 ± 0.33	–
x1 = 0.934	–	1162.75 ± 0.78
x1 = 0.9408	–	1164.5 ± 0.31
x1 = 0.9411	1174.08 ± 0.32	–
x1 = 0.9504	1176.45 ± 0.33	–
x1 = 0.9519	–	1167.38 ± 0.81
x1 = 0.9608	–	1169.62 ± 0.32
x1 = 0.9609	1179.12 ± 0.33	–
x1 = 0.9707	–	1172.11 ± 0.83
x1 = 0.9715	1181.77 ± 0.34	–
x1 = 0.9815	1184.24 ± 0.34	1174.79 ± 0.33
x1 = 0.9908	–	1177.08 ± 0.86
x1 = 1	1188.73 ± 0.34	1179.31 ± 0.33
